From PubChem BioAssay AID720589 (Broad Institute, 2013)
Calls of active or inactive are those of the source.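 The calls were made as follows: active = fitted curve drops below -35% activity at a concentration within twice the top valid tested dose; inconclusive = no clear call, values can overlap the other calls; inactive = signal rising instead of falling, among other cases.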

Test: ATP-based viability loss in HepG2 cells – cell-based, CellTiter-Glo luminescence, cherry-pick, set 3, cytotoxicity control, dose response (AID 720589)
Conditions: HepG2 viability, ATP luminescence (CellTiter-Glo), 72 h; at 0.011 µM; stronger effect = lower value; 0% = untreated, negative = ATP loss

SMILES	max activity
COc1cc(/C=N/NS(=O)(=O)c2ccc3ccccc3c2)ccc1OCc1ccc(C(=O)O)cc1	33.7% (inactive)
CCN1CCN(/C=N/c2nc3c(s2)CCCC3)CC1	-25.3% (inactive)
CC(C)(C)c1ccc(/C=N/Nc2ccc(C(=O)O)cc2)cc1	17.4% (inactive)
CC(=O)N1CCCC(c2cc(C(=O)Nc3ccccc3)no2)C1 (stereo unspecified)	15.4% (inactive)
CCNC(=O)c1cccc(S(=O)(=O)N2CCCCCC2)c1	-31.4% (inactive)

Same assay, conditions: HepG2 viability, ATP luminescence (CellTiter-Glo), 72 h; at 0.035 µM; stronger effect = lower value; 0% = untreated, negative = ATP loss

SMILES	max activity
COc1ccc(/C=C2\SC(=O)N(CCCC(=O)Nc3cc(Cl)ccc3C(=O)O)C2=O)cc1	-25.6% (inactive)
O=C1C(=O)N(Cc2cccs2)c2ccccc21	-28.1% (inactive)
CC(=O)c1ccc(N=Nc2ccc(C)cc2)cc1	-7.42% (inactive)
Nc1ccc2oc(-c3cc(Br)ccc3Cl)nc2c1	-30.5% (inactive)
O=C(O)CN1C(=O)/C(=C\c2ccccc2OCc2ccc(Cl)cc2Cl)SC1=S	-18.9% (inactive)
O=c1c2ccccc2oc2ccc(C#CC3(O)CCCCC3)cc12	-33.7% (inactive)

Same assay, conditions: HepG2 viability, ATP luminescence (CellTiter-Glo), 72 h; at 0.1 µM; stronger effect = lower value; 0% = untreated, negative = ATP loss

SMILES	max activity
COC(=O)C[C@H]1C=C[C@@H](NC(=O)Nc2ccc(C(F)(F)F)cc2)[C@H](CO)O1	-17.7% (inactive)
C[C@H]1CN([C@@H](C)CO)C(=O)Cc2cc(NC(=O)CCCCCC(=O)Nc3ccccc3N)ccc2O[C@H]1CN(C)Cc1ccc(Oc2ccccc2)cc1	-23.9% (inactive)
CCCCN=C(NNc1ccc(Br)cc1)C(=O)OCC	-31% (inactive)
CCCNC(=O)[C@@H]1[C@@H](CO)[C@@H]2Cn3c(ccc(-c4ccccc4)c3=O)[C@H]1N2C(=O)CC	-16.5% (inactive)
Cc1c(Cc2ccc3c(c2)OCO3)sc(NC(=O)C(C)(C)C)c1C#N	-26.7% (inactive)
Cc1nn(Cc2ccccc2Cl)c2sc(C(=O)Nc3ccccc3N3CCOCC3)cc12	13.3% (inactive)
Cc1ccc(C(C(=O)NCc2ccco2)N(C(=O)CNC(=O)c2cccs2)c2c(C)cc(C)cc2C)cc1 (stereo unspecified)	-27% (inactive)

Same assay, conditions: HepG2 viability, ATP luminescence (CellTiter-Glo), 72 h; at 0.3 µM; stronger effect = lower value; 0% = untreated, negative = ATP loss

SMILES	max activity
OCCN1CCN(C(=S)c2ccc(-c3ccccc3)cc2)CC1	-28.5% (inactive)
CC(C)(C)c1ccc(Oc2ccc(NC(=O)c3ccccc3C(=O)O)cn2)cc1	-40.7% (inactive)
CC(C)(C)C(=O)Nc1ccc(N=Nc2ccccc2)cc1	-12.3% (inactive)
O=c1c2ccccc2oc2cc(C#CC3(O)CCCCC3)ccc12	13.9% (inactive)
O=C(NC1CCCC1)C(c1ccccc1)n1c(CSCCOc2ccccc2)nc2ccccc21 (stereo unspecified)	-34.7% (inactive)
C=CCn1c(O)c(N=Nc2ccccc2)c2ccccc21	-21.6% (inactive)

Same assay, conditions: HepG2 viability, ATP luminescence (CellTiter-Glo), 72 h; at 0.9 µM; stronger effect = lower value; 0% = untreated, negative = ATP loss

SMILES	max activity
c1cncc(-c2ccc([C@@H]3[C@H]4CNC[C@@H]3N4CC3CCOCC3)cc2)c1	-28.8% (inactive)
CCc1cnc(N2[C@H](C#N)[C@H](c3ccc(C#Cc4ccccc4F)cc3)[C@H]2CO)s1	65.8% (inactive)
O=C(NCc1ccccn1)c1ccc(CNS(=O)(=O)c2cccc(Cl)c2)cc1	-24.4% (inactive)
O=C(Nc1ccc(NC(=O)c2cc3ccccc3o2)cc1)c1ccc2c(c1)OCCO2	-30.6% (inactive)

Same assay, conditions: HepG2 viability, ATP luminescence (CellTiter-Glo), 72 h; at 2.85 µM; stronger effect = lower value

SMILES	max activity
C[C@]12CC[C@H](O)C[C@H]1CC[C@@H]1C2CC[C@]2(C)[C@@H](C3=CC(=O)OC3)[C@@H](O)C[C@]12O (stereo partly specified)	-53.6% (inactive)

Same assay, conditions: HepG2 viability, ATP luminescence (CellTiter-Glo), 72 h; at 2.85 µM; stronger effect = lower value; 0% = untreated, negative = ATP loss

SMILES	max activity
CCCCCCCCCCCCCCCCCCNc1ccn(C2OC(COP(=O)(O)OCC3OC(n4cc(F)c(=O)[nH]c4=O)CC3O)C(O)C2O)c(=O)n1 (stereo unspecified)	-36% (inactive)
COc1cc(OC)cc(-c2cc3nc(C)c(CCC(=O)NCc4ccccc4)c(C)n3n2)c1	23.9% (inactive)
O=C(O)c1cccc(N/N=C/c2ccc(OC(F)(F)F)cc2)c1	-28.9% (inactive)
C[C@@H]1CN([C@@H](C)CO)C(=O)Cc2cc(NC(=O)Nc3ccc(C(F)(F)F)cc3)ccc2O[C@@H]1CN(C)Cc1ccc(C(=O)Nc2ccccc2N)cc1	-33% (inactive)
C/C=C/c1ccc(C2[C@@H]3CN(C(=O)Cc4ccccc4)C[C@H]2N3)cc1 (stereo partly specified)	-29.1% (inactive)
O=C(O)c1ccccc1C(=O)Nc1ccc(Oc2ccc3ccccc3c2)cc1	-28.2% (inactive)
O=C(C[C@@H]1CC[C@@H]2[C@H](COC[C@@H](O)CN2S(=O)(=O)c2ccc(F)cc2)O1)NCc1ccc(Cl)c(Cl)c1	-11.2% (inactive)
O=C(C[C@@H]1C[C@H]2c3cc(NC(=O)CC4CC4)ccc3O[C@H]2[C@H](CO)O1)NCc1ccccc1F	-31.6% (inactive)

Same assay, conditions: HepG2 viability, ATP luminescence (CellTiter-Glo), 72 h; at 8 µM; stronger effect = lower value; 0% = untreated, negative = ATP loss

SMILES	max activity
CN(c1ccc(NC(=O)CCc2c[nH]c3ccccc23)cc1)c1ccccn1	-31.2% (inactive)
O=C(O)c1ccc(N/N=C/c2c(F)cccc2Cl)cc1	-13.6% (inactive)
CCOc1cc2[nH]c(=S)n(Cc3ccc(C(=O)N4CCN(C)CC4)cc3)c(=O)c2cc1OCC	-29.8% (inactive)
COc1cc(/C=N/NS(=O)(=O)c2ccc(C)cc2)ccc1OCc1cccc(C(=O)O)c1	-15.9% (inactive)
COC(=O)C[C@@H]1CC[C@@H]2[C@H](COc3ccc(NC(=O)c4ccccc4)cc3C(=O)N2C)O1	-19.1% (inactive)
CC(C)c1ccccc1NC(=O)COC(=O)CCN1C(=O)/C(=C\C=C\c2ccccc2)SC1=S	-10% (inactive)
CCN1CCS/C1=C\C=C\C1=[N+](CC)CCS1	-37.7% (inactive)
C[C@H](CO)N1C[C@H](C)[C@H](CN(C)Cc2ccc(C(F)(F)F)cc2)Oc2ccc(NC(=O)CCCCCC(=O)Nc3ccccc3N)cc2CC1=O	-23.5% (inactive)
CCc1ccc(S(=O)(=O)c2ccc(-n3nc(C)cc3N)cc2)cc1	24% (inactive)

Same assay, conditions: HepG2 viability, ATP luminescence (CellTiter-Glo), 72 h; at 23.5 µM; stronger effect = lower value; 0% = untreated, negative = ATP loss

SMILES	max activity
CCCNC(=O)N1[C@H](C#N)[C@H](c2ccc(C#Cc3cccc(F)c3)cc2)[C@H]1CO	22.8% (inactive)
C[C@H]1CN([C@@H](C)CO)C(=O)Cc2cc(NC(=O)CCCCCC(=O)Nc3ccccc3N)ccc2O[C@H]1CN(C)Cc1ccc(Cl)c(Cl)c1	-29.2% (inactive)

Same assay, conditions: HepG2 viability, ATP luminescence (CellTiter-Glo), 72 h; at 26 µM; stronger effect = lower value; 0% = untreated, negative = ATP loss

SMILES	max activity
COc1ccc(S(=O)(=O)N=Nc2c(O)[nH]c3ccccc23)cc1	-27.4% (inactive)
COc1ccc(-c2cn(-c3ccc(OC)cc3)c3[n+]2-c2ccccc2CC3)cc1	-23.2% (inactive)
O=C(CCCN1C(=O)S/C(=C\c2ccccc2)C1=O)NNC(=O)c1ccccc1O	-21.8% (inactive)
COc1ccc(-c2sc3ccccc3c2-c2ccc(OCCN3CCCCC3)cc2)cc1	-22.5% (inactive)
O=C(/C=C/c1ccc(Cl)cc1Cl)N(Cc1ccc(Cl)cc1)C1CCS(=O)(=O)C1 (stereo unspecified)	14% (inactive)
COC(=O)CC1(C(=O)OC)Oc2ccc(Br)cc2C(=O)N1c1cccc(Cl)c1Cl (stereo unspecified)	-23% (inactive)
Cc1c(N=Cc2cc(Br)cc(Br)c2O)cccc1C(=O)O	-9.11% (inactive)
O=C(O)c1ccc(N/N=C/c2ccc3nccnc3c2)cc1	-27.1% (inactive)
O=C(N/N=C/c1ccc[nH]1)c1cc(-c2ccc(Cl)cc2)nc2ccccc12	-21.3% (inactive)
CCN(CC)c1ccc(C2NC(=O)c3ccccc3N2)cc1 (stereo unspecified)	-26.4% (inactive)
O=C(O)c1ccc(N/N=C/c2c[nH]c3ccccc23)cc1	-17.3% (inactive)
CCOc1cc(N2CCC(O)CC2)ccc1Nc1ncc2c(n1)N(C)c1ccccc1C(=O)N2C	-18.4% (inactive)
COC(=O)Cc1[nH]n(-c2nc3ccccc3s2)c(=O)c1C(C)=Nc1ccc(OC)cc1	-20.2% (inactive)
